In the supplement of paper PMC9512659:

Columns and labels:
[1] = system: Mycobacterium tuberculosis Erdman (pMV306hsp+LuxG13); test: Einf, effect of the drug pair at infinite dose (maximum growth inhibition) (fraction inhibition (0-1)); higher = more potent; extreme values may be limits of the assay
Protocol: (§1)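 DiaMOND pairwise dose responses of an equipotent two-drug mixture (1.5-fold, 10-dose series) against autoluminescent M. tuberculosis Erdman in 384-well plates. Growth inhibition was read by OD600 (luminescence for dormancy) in seven media at a constant and a terminal time point; metrics are means of at least biological duplicates. Einf and AUC25 higher = more potent; GRinf lower = more potent; log2FIC negative = synergy.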

[2] = system: Mycobacterium tuberculosis Erdman (pMV306hsp+LuxG13); test: GRinf, normalised growth-rate inhibition at infinite dose (GR value (unitless, negative = killing)); higher = less potent
Protocol: as §1

[3] = system: Mycobacterium tuberculosis Erdman (pMV306hsp+LuxG13); test: log2 fractional inhibitory concentration at 50% inhibition (log2 FIC); higher = more antagonistic
Protocol: as §1

[4] = system: Mycobacterium tuberculosis Erdman (pMV306hsp+LuxG13); test: log2 fractional inhibitory concentration at 90% inhibition (log2 FIC); higher = more antagonistic
Protocol: as §1

[5] = system: Mycobacterium tuberculosis Erdman (pMV306hsp+LuxG13); test: AUC25, normalised area under the dose-response curve up to IC25 (normalised AUC (unitless)); higher = more potent
Protocol: as §1

NNC(=O)c1ccncc1 [isoniazid] + CC(=O)NC[C@H]1CN(c2ccc(N3CCSCC3)c(F)c2)C(=O)O1 [sutezolid]
Conditions | AUC25, [5] | Einf, [1] | GRinf, [2] | log2 fractional inhibitory concentration, [3] | log2 fractional inhibitory concentration, [4]
growth medium: acidic pH 5.7, glycerol, time point: constant time point | 0.0914 | 0.846 | -0.123 | 0.123 | –
growth medium: acidic pH 5.7, glycerol, time point: terminal time point | 0.0816 | 0.972 | -0.174 | 0.103 | -0.00954
growth medium: butyrate 5 mM, time point: constant time point | 0.0778 | 0.901 | 0.0944 | 0.357 | –
growth medium: butyrate 5 mM, time point: terminal time point | 0.0468 | 0.944 | 0.104 | 0.264 | 0.0935
growth medium: cholesterol 0.05 mM, time point: constant time point | 0.026 | 0.988 | -0.536 | 0.559 | -0.209
growth medium: cholesterol 0.05 mM, time point: terminal time point | 0.113 | 1 | -1 | 0.493 | 0.0381
growth medium: cholesterol 0.2 mM (cholesterol-high), time point: constant time point | 0.0844 | 0.994 | -0.83 | 0.0991 | 0.448
growth medium: cholesterol 0.2 mM (cholesterol-high), time point: terminal time point | 0.119 | 1 | -0.942 | -0.302 | 0.592
growth medium: standard 7H9 OADC glycerol, time point: constant = terminal time point (4.2 d) | 0.0428 | 0.956 | 0.0933 | -0.00832 | -0.586
growth medium: valerate 0.1%, time point: constant time point | 0.0744 | 0.872 | -0.342 | 1.2 | –
growth medium: valerate 0.1%, time point: terminal time point | 0.0761 | 0.982 | -0.0769 | 0.633 | 0.724

growth medium: hypoxic dormancy (butyrate + nitrate), then recovery
Conditions | AUC25, [5] | Einf, [1] | GRinf, [2] | log2 fractional inhibitory concentration, [3] | log2 fractional inhibitory concentration, [4]
time point: constant time point | 0.0513 | 0.987 | 0.3 | 0.243 | -0.281
time point: terminal time point | 0.0273 | 0.958 | 0.448 | 0.741 | -0.485

CC(C)/N=c1\cc2n(-c3ccc(Cl)cc3)c3ccccc3nc-2cc1Nc1ccc(Cl)cc1 [clofazimine] + CC(C)=CCC/C(C)=C/CNCCNC1C2CC3CC(C2)CC1C3 [SQ109]
Conditions | AUC25, [5] | Einf, [1] | GRinf, [2] | log2 fractional inhibitory concentration, [3] | log2 fractional inhibitory concentration, [4]
growth medium: butyrate 5 mM, time point: constant time point | 0.0628 | 0.941 | -0.113 | -0.227 | -0.83
growth medium: butyrate 5 mM, time point: terminal time point | 0.0621 | 0.973 | -0.111 | -0.367 | -0.678
growth medium: cholesterol 0.05 mM, time point: constant time point | 0.0691 | 0.758 | -0.558 | -0.774 | –
growth medium: cholesterol 0.2 mM (cholesterol-high), time point: constant time point | 0.0566 | 0.997 | -0.966 | -0.041 | -0.582
growth medium: cholesterol 0.2 mM (cholesterol-high), time point: terminal time point | 0.0744 | 1 | -0.823 | 0.4 | -0.374
growth medium: standard 7H9 OADC glycerol, time point: constant = terminal time point (4.2 d) | 0.0939 | 0.937 | -0.0512 | -0.519 | –

growth medium: hypoxic dormancy (butyrate + nitrate), then recovery
Conditions | AUC25, [5] | Einf, [1] | GRinf, [2] | log2 fractional inhibitory concentration, [3] | log2 fractional inhibitory concentration, [4]
time point: constant time point | 0.0761 | 0.99 | -0.486 | -1.61 | -2.43
time point: terminal time point | 0.0554 | 0.962 | 0.147 | -1.78 | -1.63

CO[C@H]1/C=C/O[C@@]2(C)Oc3c(C)c(O)c4c(O)c(c(/C=N/N5CCN(C)CC5)c(O)c4c3C2=O)NC(=O)/C(C)=C\C=C\[C@H](C)[C@H](O)[C@@H](C)[C@@H](O)[C@@H](C)[C@H](OC(C)=O)[C@@H]1C [rifampicin] + CC(C)=CCC/C(C)=C/CNCCNC1C2CC3CC(C2)CC1C3 [SQ109]
Conditions | AUC25, [5] | Einf, [1] | GRinf, [2] | log2 fractional inhibitory concentration, [3] | log2 fractional inhibitory concentration, [4]
growth medium: butyrate 5 mM, time point: constant time point | 0.0902 | 0.914 | -0.0141 | 0.188 | –
growth medium: butyrate 5 mM, time point: terminal time point | 0.0763 | 0.959 | -0.032 | 0.0743 | -0.456
growth medium: cholesterol 0.2 mM (cholesterol-high), time point: constant time point | 0.03 | 0.992 | -0.905 | 0.231 | -0.46
growth medium: cholesterol 0.2 mM (cholesterol-high), time point: terminal time point | 0.0325 | 0.999 | -0.83 | 0.286 | -0.383
growth medium: standard 7H9 OADC glycerol, time point: constant = terminal time point (4.2 d) | 0.0536 | 0.909 | 0.0752 | 0.0639 | –
growth medium: valerate 0.1%, time point: constant time point | 0.0301 | 0.956 | 0.0222 | -0.112 | -0.583
growth medium: valerate 0.1%, time point: terminal time point | 0.0271 | 0.962 | 0.0133 | -0.128 | -0.625

growth medium: hypoxic dormancy (butyrate + nitrate), then recovery
Conditions | AUC25, [5] | Einf, [1] | GRinf, [2] | log2 fractional inhibitory concentration, [3] | log2 fractional inhibitory concentration, [4]
time point: constant time point | 0.0556 | 0.984 | -0.371 | -1.51 | -1.97
time point: terminal time point | 0.0342 | 0.964 | 0.12 | -0.863 | -1.05

COc1nc2ccc(Br)cc2cc1[C@@H](c1ccccc1)[C@@](O)(CCN(C)C)c1cccc2ccccc12 [bedaquiline] + CC(C)=CCC/C(C)=C/CNCCNC1C2CC3CC(C2)CC1C3 [SQ109]
Conditions | AUC25, [5] | Einf, [1] | GRinf, [2] | log2 fractional inhibitory concentration, [3] | log2 fractional inhibitory concentration, [4]
growth medium: butyrate 5 mM, time point: constant time point | 0.0731 | 0.963 | -0.11 | 0.85 | 0.414
growth medium: butyrate 5 mM, time point: terminal time point | 0.0507 | 0.979 | -0.0824 | 0.817 | 0.616
growth medium: cholesterol 0.05 mM, time point: constant time point | 0.085 | 0.82 | -0.737 | 0.241 | –
growth medium: cholesterol 0.2 mM (cholesterol-high), time point: constant time point | 0.0719 | 1 | -0.847 | 0.546 | 0.667
growth medium: cholesterol 0.2 mM (cholesterol-high), time point: terminal time point | 0.0884 | 1 | -0.779 | 0.31 | 0.799
growth medium: standard 7H9 OADC glycerol, time point: constant = terminal time point (4.2 d) | 0.0609 | 0.967 | -0.158 | 0.0969 | –
growth medium: valerate 0.1%, time point: constant time point | 0.0593 | 0.996 | -0.151 | 0.191 | -0.0839
growth medium: valerate 0.1%, time point: terminal time point | 0.047 | 0.993 | -0.127 | 0.276 | -0.384

growth medium: hypoxic dormancy (butyrate + nitrate), then recovery
Conditions | AUC25, [5] | Einf, [1] | GRinf, [2] | log2 fractional inhibitory concentration, [3] | log2 fractional inhibitory concentration, [4]
time point: constant time point | 0.0746 | 0.992 | -0.388 | 1.24 | 1.04
time point: terminal time point | 0.0292 | 0.964 | 0.0989 | -0.811 | -0.972

O=[N+]([O-])c1cn2c(n1)OC[C@@H](OCc1ccc(OC(F)(F)F)cc1)C2 [pretomanid] + CC(=O)NC[C@H]1CN(c2ccc(N3CCSCC3)c(F)c2)C(=O)O1 [sutezolid]
Conditions | AUC25, [5] | Einf, [1] | GRinf, [2] | log2 fractional inhibitory concentration, [3] | log2 fractional inhibitory concentration, [4]
growth medium: acidic pH 5.7, glycerol, time point: constant time point | 0.0784 | 0.879 | -0.246 | -0.119 | –
growth medium: acidic pH 5.7, glycerol, time point: terminal time point | 0.0823 | 0.987 | -0.346 | 0.0862 | -0.449
growth medium: butyrate 5 mM, time point: constant time point | 0.0935 | 0.93 | 0.0242 | 1.07 | –
growth medium: butyrate 5 mM, time point: terminal time point | 0.0736 | 0.97 | -0.0169 | 0.95 | 1.11
growth medium: cholesterol 0.05 mM, time point: constant time point | 0.0266 | 0.865 | -1 | -0.159 | –
growth medium: cholesterol 0.2 mM (cholesterol-high), time point: constant time point | 0.0533 | 0.961 | -0.417 | -0.512 | 0.19
growth medium: cholesterol 0.2 mM (cholesterol-high), time point: terminal time point | 0.0918 | 1 | -0.326 | -0.395 | -0.4
growth medium: standard 7H9 OADC glycerol, time point: constant = terminal time point (4.2 d) | 0.0632 | 0.988 | -0.142 | 0.0178 | -0.266
growth medium: valerate 0.1%, time point: constant time point | 0.119 | 0.974 | -0.158 | -0.783 | –
growth medium: valerate 0.1%, time point: terminal time point | 0.0856 | 0.978 | -0.0339 | -0.609 | -0.487

growth medium: hypoxic dormancy (butyrate + nitrate), then recovery
Conditions | AUC25, [5] | Einf, [1] | GRinf, [2] | log2 fractional inhibitory concentration, [3] | log2 fractional inhibitory concentration, [4]
time point: constant time point | 0.0715 | 0.965 | 0.332 | -0.376 | -0.853
time point: terminal time point | 0.0423 | 0.932 | 0.457 | -0.056 | -0.41
